Experiment: Cleavage experiments with a variety of cleavage agents, reaction mixtures analyzed by RP-HPLC (FIG. 77, 78A-78B)
Conditions: after 10 minutes of incubation with cleave reagent
Source text: In addition to these a variety of suitable cleaving agents can be used such as Bis(2-mercaptoethyl)sulfone (BMS) and N,N′-dimethyl-N,N′-bis(mercaptoacetyl)hydrazine (DMH) (Singh et al., Bioorg. Chem., 22, 109-115 (1994). Reactions can be further catalyzed by inclusion of selenols (Singh et al. Anal Biochem. 1995 Nov. 20; 232(1):86-91 [18]). Borohydrides, such as sodium borohydrides can also be used for this purpose (Stahl et al., Anal. Chem., 1957, 29 (1), pp 151 155 [19]) as well as ascorbic acid (Nardai et al., J. Biol. Chem. 276, 8825-8828 (2001)). In addition, enzymatic methods for cleavage of disulfide bonds ae also well known such as disulfide and thioreductase and can be used with compounds of the present invention (Holmgren et. al., Methods in Enzymology, Volume 252, 1995, Pages 199-208 [21]).

Row | Structure (SMILES) | cleavage of linker and 3′-protective group by cleavage agent
1 | O[C@H](CS)[C@H](O)CS (racemic) [DTT, dithiothreitol] | full cleavage of both linker and the 3′-protective groups
2 | N[C@@H](CS)C(=O)O [L-cysteine] | full cleavage of both linker and the 3′-protective groups
3 | NCCS [cysteamine] | full cleavage of both linker and the 3′-protective groups
4 | OC(=S)CCC(O)=S [dithiosuccinic acid] | selective cleavage of 3′-O-protective group
